Assay results from ChEMBL document CHEMBL1154991, “Activity-guided isolation of antioxidative constituents of Cotinus coggygria” (J Nat Prod, 2000).
In brackets after ≈: the same amount, converted by molar mass.

Each compound was assayed on Radical scavenging activity (assay: Antioxidant activity assessed as DPPH radical scavenging activity after 30 mins).
Assay type: functional

Q: O=C1/C(=C(/C(=C2\Oc3cc(O)ccc3C2=O)c2ccc(O)c(O)c2)c2ccc(O)c(O)c2)Oc2cc(O)ccc21 was tested. Which IC50 did it give?
A: The IC50 was 9.7 µg/mL (≈ 18 µM).

Q: With O=C1O[C@H]([C@@H](O)CO)C(O)=C1O [ASCORBIC ACID] as the compound, how does the IC50 read?
A: The IC50 was 22 µg/mL (≈ 125 µM).

Q: How did the IC50 turn out when COc1ccc(O)c(C(C)(C)C)c1.COc1ccc(O)cc1C(C)(C)C [BUTYLATED HYDROXYANISOLE] was run?
A: The IC50 was 21 µg/mL.

Q: How did the IC50 turn out when COC(=O)c1cc(O)c(O)c(O)c1 [GALLIC ACID METHYL ESTER] was run?
A: The IC50 was 18.6 µg/mL (≈ 101 µM).

Q: How did the IC50 turn out when O=C(O)c1cc(O)c(O)c(O)c1 [GALLIC ACID] was run?
A: The IC50 was 10 µg/mL (≈ 58.8 µM).

Q: Which IC50 does the source give for O=C(OC[C@H]1O[C@@H](OC(=O)c2cc(O)c(O)c(O)c2)[C@H](OC(=O)c2cc(O)c(O)c(O)c2)[C@@H](OC(=O)c2cc(O)c(O)c(O)c2)[C@@H]1OC(=O)c1cc(O)c(O)c(O)c1)c1cc(O)c(O)c(O)c1 [PENTAGALLOYL GLUCOSE] here?
A: The IC50 was 12.6 µg/mL (≈ 13.4 µM).

Q: How did the IC50 turn out when O=C1/C(=C/c2ccc(O)c(O)c2)Oc2cc(O[C@@H]3O[C@H](CO)[C@@H](O)[C@H](O)[C@H]3O)ccc21 [SULFUREIN] was run?
A: Its IC50 is 18.7 µg/mL (≈ 43.2 µM).

Q: How did the IC50 turn out when O=C1/C(=C/c2ccc(O)c(O)c2)Oc2cc(O)ccc21 [SULFURETIN] was run?
A: Its IC50 is 16.1 µg/mL (≈ 59.6 µM).
